Test results taken from patent publication US5230998A, “Method for the prescreening of drugs targeted to the V3 hypervariable loop of the HIV-1 envelope glycoprotein gp 120” (priority 1991, dated 1993).
In brackets after ≈: the same amount, converted by molar mass.

Legend:
[1] = molecular target: recombinant gp120 and recombinant CD4 (UniProt P01730+P03375); assay: Inhibition of the reaction between recombinant gp120 and recombinant CD4; assay type: binding; conditions: complete inhibition only at high concentrations; read-out: concentration for complete inhibition of the gp120-CD4 reaction
Description: However, ATA is an inefficient inhibitor of the reaction between recombinant gp120 and recombinant CD4, and complete inhibition of this reaction can be observed only at high concentrations of ATA (≈1 mg/ml).

[2] = molecular target: gp120 of the same virus subtype expressed in E. coli (HIV-1 M:B_ARV2/SF2, UniProt P03378); assay: Interaction of ATA with gp120 (non-glycosylated); assay type: binding, HIV-1 SF2; conditions: data not shown
[3] = molecular target: T1, HIV-1 IIIB glycoprotein gp120 V3 hypervariable loop (Human immunodeficiency virus type 1 BH10, UniProt P03375); assay: Inhibition of the reaction between HIV-1 IIIB gp120 and three distinct antibodies reacting with the V3 hypervariable loop (FIGS. 8-11); assay type: binding; conditions: 60 μg/ml, metal complexes versus uncomplexed
T1 construct: b180 also mentions the V3 loop peptide
Description: (§1) FIG. 8 is a bar graph depicting the inhibitory effect of chlorine6 (60 μg/ml) and metal chelates thereof on the reaction between HIV-1 IIIB glycoprotein gp120 and three distinct antibodies reacting with the V3 hypervariable loop of this glycoprotein. The antisera used were rabbit antiserum to a synthetic peptide corresponding to the V3 hypervariable loop of HIV-1 clone BH10, serum of a chimpanzee immunized with V3 hypervariable loop peptides of distinct HIV-1 isolates and monoclonal antibodies (McAb NEA 9305) raised against residues (315-329) of the V3 hypervariable loop of HIV-1 BH10 (Neurath et al (1990), Molec. Immunol., 27, 539-549).
FIG. 9 is a bar graph depicting the inhibitory effect of deuteroporphyrin IX,2-vinyl,4-hydroxymethyl (60 μg/ml) and metal chelates thereof on the reaction between HIV-1 IIIB glycoprotein gp120 and three distinct antibodies reacting with the V3 hypervarible loop of this glycoprotein. The antisera used were rabbit antiserum to a synthetic peptide corresponding to the V3 hypervariable loop of HIV-1 clone BH10, serum of a chimpanzee immunized with V3 hypervariable loop peptides of distinct HIV-1 isolates and monoclonal antibodies (McAb NEA 9305) raised against a synthetic peptide corresponding to residues (315-329) of the V3 hypervariable loop of HIV-1 BH10 (Neurath et al (1990), Molec. Immunol 27, 539-549).
as §1, with “FIG. 10” for “FIG. 8”, “of meso-tetra (4-carboxyphenyl)porphine” for “of chlorine6”, “against a synthetic peptide corresponding to” for “against”, “HIV-1 BH10.” for “HIV-1 BH10”
as §1, with “FIG. 11” for “FIG. 8”, “of uroporphyrin III” for “of chlorine6”, “against a synthetic peptide corresponding to” for “against”, “et al,” for “et al”, “Molec. lmmunol.,” for “Molec. Immunol.,”, “27, 539-549)” for “27, 539-549).”
Monoclonal antibodies (McAbs) recognizing the V3 hypervariable loop of HIV-1 BH 10 (McAb 9305 from DuPont, Wilmington, Del.) and an antiserum from a chimpanzee immunized with a mixture of V3 hypervariable loop peptides from 21 distinct HIV1 isolates (Girard, M., Kieny, M-P., Pinter, A., Barre-Sinoussi, F., Nara, P., Kolbe, H., Kusumi, K., Chaput, A., Reinhart, T., Muchmore, E, Ronco, J., Kaczorek, M., Gomard, E, Gluckman, JC., Fultz, P. N. (1991), "Immunization of Chimpanzees Confers Protection Against Challenge with Human Immunodeficiency Virus", Proc. Natl. Acad. Sci. USA, 88, 542-546) were also used for studies on the inhibitory affect of ATA on the reaction between these antibodies and gp120, using ELISA tests. These tests were carried out similarly as RIA, except that sodium merthiolate (1 mg/ml) was added to the buffers instead of NaN3, and goat antimouse IgG antibodies (Boehringer Mannheim Biochemicals, Indianapolis, Ind.) and goat anti-human IgG antibodies (Sigma, St. Louis, Mo.), respectively, each linked to horseradish peroxidase were used as second antibodies at final dilutions of 1:1,000 in phosphate-buffered saline (PBS) containing 10% goat serum and 0.1% Tween 20. […]

HIV-1 = assay: Antiviral activity: inhibition of P24 production in MT-2 cells; assay type: cell-based, HIV-1 IIIB
Description: All chemicals were tested at serial two-fold dilutions (1.25-80 μg/ml, prepared from a stock solution containing 10 mg/ml in dimethylsulfoxide). The chemicals were obtained from Aldrich, Milwaukee, Wis. or were synthesized. Their inhibitory activity was determined by two distinct methods, based on inhibition of synthesis of core protein P24 and on protection by the chemicals of cells against the cytopathic effect of HIV-1 (colorimetric method) respectively.
The chemicals were serially diluted in RPMI 1640 medium without phenol red (GIBCO, Grand Island, N.Y.) containing 10% fetal calf serum (FCS). Aliquots of the diluted solutions were added to wells of 96 well plates and mixed with an equal volume of diluted HIV-1 [multiplicity of infection (MOI) =0.0045]. After incubation for 1 hour at 37° C., 25 μl of polybrene (1 μg/ml) treated MT-2 cells (Harada, S., Koyanagi, Y., Yamamoto, N., (1985), "Infection of HTLV-III/LAV in HTLV-I-carrying Cells MT-2 and MT-4 and Application in a Plaque Assay", Science, 229, 563-566), (5,000 cells/well) were added. The mixture was incubated for 1 hour at 37° C. and the volume was adjusted with RPMI 1640 medium with 10% FCS to 200 μl. On the fourth day after incubation at 37° C., 100 μl of culture supernatants were collected from each well and equal volumes of fresh medium were added to the wells. The supernatants were assayed for P24 using a kit from Coulter Immunology (Hialeah, Fla.). On the sixth day, an indicator XTT tetrazolium dye (1 mg/ml; 50 μl/well; PolySciences, Inc., Warrington, Penna.) was added to the cells. After 4 hours, intracellular formazan was determined colorimetrically at 450 nm.
^c Chemicals with inhibitory activity in ELISA (RIA) tests were teste
^d EC50 = concentration at which the production of P24 was […]

Sequence of gp120 of the same virus subtype expressed in E. coli (P03378 32-509): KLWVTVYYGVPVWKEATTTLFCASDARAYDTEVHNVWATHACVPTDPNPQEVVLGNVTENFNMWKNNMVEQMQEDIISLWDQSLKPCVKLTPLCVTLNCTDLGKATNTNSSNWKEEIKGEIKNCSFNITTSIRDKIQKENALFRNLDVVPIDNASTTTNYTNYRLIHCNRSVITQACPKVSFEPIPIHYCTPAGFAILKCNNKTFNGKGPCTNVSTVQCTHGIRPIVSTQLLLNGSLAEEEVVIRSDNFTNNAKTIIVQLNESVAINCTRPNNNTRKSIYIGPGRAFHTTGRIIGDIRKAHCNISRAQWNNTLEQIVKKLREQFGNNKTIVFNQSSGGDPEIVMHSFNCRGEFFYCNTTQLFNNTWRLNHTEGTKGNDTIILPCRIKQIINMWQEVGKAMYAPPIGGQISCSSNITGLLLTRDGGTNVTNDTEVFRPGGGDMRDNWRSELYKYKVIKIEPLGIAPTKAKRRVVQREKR

O=C(O)C1=CC(=C(c2ccc(O)c(C(=O)O)c2)c2ccc(O)c(C(=O)O)c2)C=CC1=O [substance #122, aurintricarboxylic acid]
IC100 [1]: ~1000 µg/mL | interaction of ATA with gp120 [2]: not with gp120 of the same virus subtype expressed in E. coli

C=Cc1c(C)c2cc3nc(c(CC(=O)O)c4[nH]c(cc5nc(cc1[nH]2)C(C)=C5CC)c(C)c4C(=O)O)[C@@H](CCC(=O)O)[C@@H]3C [substance #149, chlorine e6]
inhibitory activity on the interaction between the V3 hypervariable loop of HIV-1-IIIB and antisera [3]: considerable inhibitory activity | EC50 (HIV-1; Human immunodeficiency virus 1, MT2, read-out: EC50 (concentration at which the production of P24 was reduced to 50% of that detected in control cultures)): 0.8 µg/mL (≈ 1.34 µM) | inhibition at 40 µg/mL (HIV-1; Human immunodeficiency virus 1, MT2, read-out: percentage of inhibition of P24 nucleoprotein production): 100%
